Assay results published in patent publication US11447525B2 (NIIGATA UNIVERSITY, priority 2018, dated 2022).
Each block holds one compound with its values, some of them ahead of it. Non-standard residues stand in square brackets, D forms with d. Residues, ends and D or L forms follow the SMILES beside them. No end group written: not given here. *: point of attachment. 5FAM = O=C1OC2(c3ccc(O)cc3Oc3cc(O)ccc32)c2ccc(C(=O)*)cc21; NMeR = CN[C@@H](CCCNC(=N)N)C(=O)O

What was measured:
[1] = test system: pancreatic cancer cells (BxPC3, PK-8, AsPC1); assay: Accumulation of FLC-labeled peptides in cells (Test Example 8); type: cell-based, human; conditions: 2 μM, 37° C., 2 hours
Description: Tests were conducted to confirm the accumulation of various peptides into each of the cells shown below in Table 13. Further, the peptides shown below in Table 14 were used.
Each peptide was added to each of the cells shown in Table 13 in an amount sufficient to achieve a final concentration in the medium of 2 μM, and following cultivation of the cells at 37° C. for 2 hours, the sample was washed 3 times with a medium containing no peptide to remove any peptide within the medium. Subsequently, the incorporation of each of the peptides into each of the cells was evaluated visually using an inverted fluorescence microscope. Prior to the microscopic examination, the culture supernatant to which the peptide had been added was removed, and following washing three times with 1×PBS (−), a trypsin treatment was conducted to remove the adherent cells, and the resultant was immediately transferred into a new 96-well plate and once again suspended in fresh culture solution before the microscopic examination was performed. In FIG. 23, “pep(−)” indicates the control cells to which no peptide was administered, and “single PCPP11” indicates cells to which FLC (fluorescein)-PCPP11 had been added. Further, “mal” indicates a maleimide group, with the peptide and the FLC bonded together by forming a covalent bond between the thiol group (—SH) of a cysteine residue and a maleimide group introduced into the FLC.

[2] = Degradation test by human blood plasma, MALDI-TOFMS analysis; type: in vitro ADME; conditions: for proportion of peak area relative to the total peak area in the MALDI-TOFMS analysis: FAM-L peptide added to 50% by mass human blood plasma
Description: Specifically, a peptide composed of the amino acid sequence represented by SEQ ID NO: 1 (hereafter sometimes referred to as “PCPP11”) was added to human blood plasma having a concentration of 50% by mass, the mixture was sampled immediately after starting the degradation test (after 0 minutes), and then after 5 minutes, after 10 minutes, after 20 minutes, after 30 minutes, after 60 minutes and after 120 minutes, and the samples were analyzed by MALDI-TOFMS (Matrix Assisted Laser Desorption/Ionization-Time Of Flight Mass Spectrometry). In Table 2, “UK” is an abbreviation for “unknown”. Further, the No. shown for each peptide in Table 2 corresponds with the numerical value recorded on the peaks of the graphs shown in FIG. 1.
Each of the peptides described above was added to human blood plasma having a concentration of 50% by mass, the resulting mixture was sampled immediately after starting the degradation test (after 0 minutes), and then after 5 minutes, after 10 minutes, after 20 minutes, after 30 minutes, after 60 minutes and after 120 minutes, and the samples were analyzed by MALDI-TOFMS. The results are shown in FIGS. 2 to 6 and Tables 4 to 6 shown below. Furthermore, the data for the degradation test by human blood plasma using PCPP11 from Reference Example 1 and the degradation tests by human blood plasma using each of the above peptides are collated in FIG. 7 and Table 7. The SEQ ID NO listed for the FAM-labeled peptide represents the SEQ ID NO of the peptide portion. Further, the No. shown for each peptide in Tables 4 to 6 corresponds with the numerical value recorded on the peaks of the graphs shown in FIGS. 2 to 6. In each table, in those cases where the numerical values are shown separated into an upper row and a lower row, the upper row value indicates the proportion (%) of peak area for two or more peptides relative to the total peak area in the MALDI-TOFMS analysis. On the other hand, the lower row value indicates the proportion (%) of each peptide when the peak area for the two or more peptides is deemed to be 100%. Moreover, for example, for the peptide No. 9 shown in Table 4, the left-side “70.0%” indicates the proportion (%) of the peptide No. 9 when the total peak area for the peptides No. 9 to 11 is deemed to be 100%, whereas the right-side “65%” indicates the proportion (%) of the peptide No. 9 relative to the total peak area in the MALDI-TOFMS analysis. This system is also used in the following tables.

[3] = test system: human pancreatic cancer growth and progression mouse model (subcutaneous and intraperitoneal human pancreatic cancer cell-transplanted); assay: Selective absorption into tissues of human pancreatic cancer growth and progression mouse model, fluorescence signal (Test Examples 3, 4, Reference Example 2); type: in vivo, Balb/c nu/nu mouse; conditions: 200 μg intravenously, 30 minutes after injection
Description: Subsequently, 200 μg of each of the fluorescent labeled peptides prepared above in “1.” was injected intravenously into a human pancreatic cancer growth and progression mouse model (Balb/c nu/nu mouse, subcutaneous and intraperitoneal human pancreatic cancer cell-transplanted model). The pharmacokinetics of the peptide 30 minutes after the intravenous injection were then analyzed by tissue analysis of the freshly dissected specimen of the administered mouse, with the absorption quantified by detection of the fluorescence signal. […] In FIG. 9A, “sc tumor” is an abbreviation for “subcutaneous tumor”. In FIG. 9B, “abd tumor” is an abbreviation for “abdominal tumor”, indicating a tumor formed intraperitoneally. Further, “br” indicates the brain, “hr” indicates the heart, “kd” indicates the kidney, and “liv” indicates the liver. Furthermore, “liv. meta” is an abbreviation for “liver metastatic tumor”, and describes a tumor that has metastasized to the liver. Moreover, “panc” indicates the pancreas, and “sp” indicates the spleen. These same abbreviations are also used in subsequent figures. Furthermore, the term “untreated” in FIG. 9A indicates tissues resected from a mouse that was not administered with any fluorescent labeled peptide.
Specifically, first, either 27 μg or 200 μg of fluorescein was injected intravenously into a human pancreatic cancer growth and progression mouse model (Balb/c nu/nu mouse, subcutaneous and intraperitoneal human pancreatic cancer cell-transplanted model). The pharmacokinetics of the FLC 30 minutes after the intravenous injection were then analyzed by tissue analysis of the freshly dissected specimen of the administered mouse, with the absorption quantified by detection of the fluorescence signal.

[4] = human blood plasma having a concentration of 50% by mass; conditions: up to 120 minutes

Compound: R-mR-PTTWHKP-C(-[FLC])-RRPTTWHKP-G-RRPTTWHKP [NmL-Cys(-FLC)-LL]
fluorescence compared with FLC-PCPP11 [1]: stronger fluorescence | fluorescence detected in all of the pancreatic cancer cells [1]: particularly strong fluorescence

Compound: C[C@H](O)[C@@H](NC(=O)[C@@H](Cc1c[nH]c2ccccc12)NC(=O)[C@@H](Cc1c[nH]cn1)NC(=O)[C@@H](CCCCN)NC(=O)[C@H]1CCCN1C(=O)CNC(=O)[C@@H]1CCCN1C(=O)[C@H](CCCCN)NC(=O)[C@H](Cc1c[nH]cn1)NC(=O)[C@H](Cc1c[nH]c2ccccc12)NC(=O)[C@@H](NC(=O)[C@@H](NC(=O)[C@@H]1CCCN1C(=O)[C@H](CCCNC(=N)N)N(C)C(=O)[C@@H](N)CCCNC(=N)N)[C@@H](C)O)[C@@H](C)O)C(=O)N[C@@H](C(=O)N1CCC[C@@H]1C(=O)N[C@H](CCCNC(=N)N)C(=O)N[C@H](CCCNC(=N)N)C(=O)O)[C@H](C)O [No. 19, R-mR-PTTWHKP-G-pkhwttprr] (H-R[NMeR]PTTWHKPG[dP][dK][dH][dW][dT][dT][dP][dR][dR]-OH; N-terminus and C-terminus assumed)
degradation resistance compared with the stand-alone PCPP11 and the FAM-PCPP11 ([2]; 50% by mass human blood plasma): superior degradation resistance | degradation products observed ([2]; 50% by mass human blood plasma, within 120 minutes of starting the test): no degradation products were observed | inhibitory performance on nonspecific absorption into untargeted normal organs [3]: maintained satisfactorily | absorption into pancreatic malignant tumors relative to the Ld peptide ([3]; FIG. 12B): approximately 1.4 fold

Compound: RPTTWHKP-G-RRPTTWHKP-C(-[FLC])-RRPTTWHKP (RPTTWHKPGRRPTTWHKPC(fluorescein)RRPTTWHKP) [L(-R)L-Cys(-FLC)-L]
fluorescence compared with FLC-PCPP11 [1]: stronger fluorescence | fluorescence detected in all of the pancreatic cancer cells [1]: particularly strong fluorescence

Compound: R-mR-PTTWHKP-C(-[FLC])-RRPTTWHKP [NmL-Cys(-FLC)-L]
fluorescence compared with FLC-PCPP11 [1]: stronger fluorescence

inhibitory performance on nonspecific absorption into untargeted normal organs [3]: satisfactorily maintained | absorption into pancreatic malignant tumors compared with the conventional PCPP11 ([3]; FIG. 11): approximately 6 fold
Compound: C[C@@H](O)[C@H](NC(=O)[C@@H](NC(=O)[C@@H]1CCCN1C(=O)[C@H](CCCNC(=N)N)NC(=O)[C@H](CCCNC(=N)N)NC(=O)CNC(=O)[C@@H]1CCCN1C(=O)[C@H](CCCCN)NC(=O)[C@H](Cc1c[nH]cn1)NC(=O)[C@H](Cc1c[nH]c2ccccc12)NC(=O)[C@@H](NC(=O)[C@@H](NC(=O)[C@@H]1CCCN1C(=O)[C@H](CCCNC(=N)N)NC(=O)[C@H](CCCNC(=N)N)NC(=O)CNC(=O)[C@@H]1CCCN1C(=O)[C@H](CCCCN)NC(=O)[C@H](Cc1c[nH]cn1)NC(=O)[C@H](Cc1c[nH]c2ccccc12)NC(=O)[C@@H](NC(=O)[C@@H](NC(=O)[C@@H]1CCCN1C(=O)[C@H](CCCNC(=N)N)NC(=O)[C@H](CCCNC(=N)N)NC(=O)c1ccc2c(c1)C(=O)OC21c2ccc(O)cc2Oc2cc(O)ccc21)[C@@H](C)O)[C@@H](C)O)[C@@H](C)O)[C@@H](C)O)[C@@H](C)O)C(=O)N[C@@H](Cc1c[nH]c2ccccc12)C(=O)N[C@@H](Cc1c[nH]cn1)C(=O)N[C@@H](CCCCN)C(=O)N1CCC[C@H]1C(=O)O [FAM-LLL] (5FAM-RRPTTWHKPGRRPTTWHKPGRRPTTWHKP-OH; C-terminus assumed)

Compound: R-mR-PTTWHKP-G-pkhwttprr (H-R[NMeR]PTTWHKPG[dP][dK][dH][dW][dT][dT][dP][dR][dR]-OH; N-terminus and C-terminus assumed; SMILES C[C@H](O)[C@@H](NC(=O)[C@@H](Cc1c[nH]c2ccccc12)NC(=O)[C@@H](Cc1c[nH]cn1)NC(=O)[C@@H](CCCCN)NC(=O)[C@H]1CCCN1C(=O)CNC(=O)[C@@H]1CCCN1C(=O)[C@H](CCCCN)NC(=O)[C@H](Cc1c[nH]cn1)NC(=O)[C@H](Cc1c[nH]c2ccccc12)NC(=O)[C@@H](NC(=O)[C@@H](NC(=O)[C@@H]1CCCN1C(=O)[C@H](CCCNC(=N)N)N(C)C(=O)[C@@H](N)CCCNC(=N)N)[C@@H](C)O)[C@@H](C)O)C(=O)N[C@@H](C(=O)N1CCC[C@@H]1C(=O)N[C@H](CCCNC(=N)N)C(=O)N[C@H](CCCNC(=N)N)C(=O)O)[C@H](C)O)
not cleaved [4]: no degradation products within 120 minutes; 100% at 120 min

Compound: [FLC]-R-mR-PTTWHKP-G-RRPTTWHKP [FLC-NmLL]
fluorescence compared with FLC-PCPP11 [1]: stronger fluorescence

Compound: RPTTWHKP-C(-[FLC])-RRPTTWHKP-C(-[FLC])-RRPTTWHKP [L(-R)-Cys(-FLC)-L-Cys(-FLC)-L]
fluorescence compared with FLC-PCPP11 [1]: stronger fluorescence | fluorescence detected in all of the pancreatic cancer cells [1]: particularly strong fluorescence

Compound: RPTTWHKP-G-RRPTTWHKP-K(-[FLC])-RRPTTWHKP (RPTTWHKPGRRPTTWHKPK(fluorescein)RRPTTWHKP) [L(-R)L-Lys(-FLC)-L]
fluorescence compared with FLC-PCPP11 [1]: stronger fluorescence | fluorescence detected in all of the pancreatic cancer cells [1]: particularly strong fluorescence

remaining at 5 min ([2]; 50% by mass human blood plasma, 5 min, read-out: degradation resistance (proportion of the peptide retained without degradation)): 100% | remaining at 10 min ([2]; 50% by mass human blood plasma, 10 min, read-out: degradation resistance (proportion of the peptide retained without degradation)): 90% | remaining at 20 min ([2]; 50% by mass human blood plasma, 20 min, read-out: degradation resistance (proportion of the peptide retained without degradation)): 92% | remaining at 0.5 h ([2]; 50% by mass human blood plasma, 30 min, read-out: degradation resistance (proportion of the peptide retained without degradation)): 87% | remaining at 1 h ([2]; 50% by mass human blood plasma, 60 min, read-out: degradation resistance (proportion of the peptide retained without degradation)): 73% | degradation resistance (proportion of the peptide retained without degradation) ([2]; 50% by mass human blood plasma, Start): 100% | proportion of peak area relative to the total peak area in the MALDI-TOFMS analysis ([2]; 5 min): 47.2% | proportion of peak area relative to the total peak area in the MALDI-TOFMS analysis ([2]; 10 min): 43.2% | proportion of peak area relative to the total peak area in the MALDI-TOFMS analysis ([2]; 20 min): 45.6% | proportion of peak area relative to the total peak area in the MALDI-TOFMS analysis ([2]; 30 min): 43.6% | proportion of peak area relative to the total peak area in the MALDI-TOFMS analysis ([2]; 60 min): 37.4% | proportion of peak area relative to the total peak area in the MALDI-TOFMS analysis ([2]; 120 min): 13.5% | proportion of peak area relative to the total peak area in the MALDI-TOFMS analysis ([2]; Start): 47.6%
Compound: C[C@@H](O)[C@H](NC(=O)[C@@H](NC(=O)[C@@H]1CCCN1C(=O)[C@H](CCCNC(=N)N)NC(=O)[C@H](CCCNC(=N)N)NC(=O)c1ccc2c(c1)C(=O)OC21c2ccc(O)cc2Oc2cc(O)ccc21)[C@@H](C)O)C(=O)N[C@@H](Cc1c[nH]c2ccccc12)C(=O)N[C@@H](Cc1c[nH]cn1)C(=O)N[C@@H](CCCCN)C(=O)N1CCC[C@H]1C(=O)O [compound 13] (5FAM-RRPTTWHKP-OH; C-terminus assumed)
